Laboratory results: patent US8420606B2, “Method of utilizing physiological activity of rare saccharide and composition containing rare saccharide” (priority 2002, dated 2013)
“Also recorded” adds a separate entry of the source.

Tests used:
[1] = test system: Rat leukocyte (granulocyte); assay: production of active oxygen from leukocyte, LO12 chemiluminescence, zymosan; type: cell-based; details: for production of active oxygen from leukocyte: saccharide 10 mM added to the producing system, zymosan
Protocol: Influences of various kinds of rare saccharides upon production of active oxygen from leukocyte were examined under the conditions given below. In this Example 5, an effect against the production of active oxygen from leukocyte was examined with LO12 chemiluminescence.
(1) Target leukocyte to which the rare saccharides were added: Rat leukocyte (granulocyte) was used.
(2) Rare saccharides added: In addition to D-allose as a rare saccharide belonging to aldose, D-psicose and D-altros as rare saccharides belonging to ketose and D-tallitol belong to polyol were added as other comparative saccharides. Further, D-glucose and D-fructose were employed as saccharides abundant in the natural world.
(3) Experiment method: (1) Changes over time in production of active oxygen from rat leukocyte . . . The time-dependent progress in production of active oxygen caused by adding zymosan particles to rat leukocyte (granulocyte) was examined. Also, the time-dependent progress in production of active oxygen caused under the presence of each of the rare saccharides was examined.
(2) Influences of rare saccharides upon production of active oxygen . . . By adding the various saccharides to the system for producing active oxygen from leukocyte, the amount of produced active oxygen was measured for each saccharide. The concentration of each of the added rare saccharides was set to 10 mM. Also, the measurement was made under the condition without addition of any saccharides.
(3) Effect of rare saccharides upon production of active oxygen . . . The rare saccharides were each added at concentration of 10 mM after the start of phagocytosis and the start of the production of active oxygen subsequent to addition of zymosan to leukocyte.
(4) Concentration dependency of active-oxygen production inhibitory effect of D-allose . . . Concentration dependency of the active-oxygen production inhibitory effect of D-allose was examined. D-allose was added at concentration of 0 mM, 5 mM and 10 mM.

[2] = test system: CINC-1 mRNA; assay: rat renal ischemia-reperfusion, northern blotting; type: in vivo; details: 400 mg/kg into the vein 30 minutes before clamping, 45 minutes ischemia, reperfusion for 2 hours, preliminary
Protocol: Target . . . Male rat with weight of about 300 g. Experiment method . . . The renal ischemia model was prepared after putting the rat under anesthesia with Nembutal. Renal ischemia . . . After picking up the right kidney, the left renal blood vessel was clamped for 45 minutes. Drugs used . . . D-allose and D-psicose (400 mg/kg per drug) were administrated into the vein 30 minutes before clamping for renal ischemia. Measurement item . . . An influence of each drug upon appearance of a trouble factor, i.e., […] neutrophil chemoattractant (CINC)-1 mRNA, was measured (after reperfusion for 2 hours).

[3] = test system: hippocampus neurons; assay: temporary brain ischemia, survival of hippocampus neurons; type: in vivo, gerbil; details: for necrosis of hippocampus neurons caused by ischemia: 200 mg/kg before ischemia, 5 minutes ischemia, after 1 week
Protocol: (2) Method: The bilateral common carotid artery of a gerbil was shut off for 5 minutes. After 1 week, the gerbil was sacrificed and a sample was prepared in accordance with the ordinary method, followed by hematoxyline eosin dyeing. The survival rate was measured by counting the number of hippocampus neurons while looking at them under a microscope. Experiments were performed on a normal control group, a group subjected to only ischemia, and a group administrated with 200 mg/kg of D-allose or D-psicose before ischemia. It is known that glutamates released in large amount from the neurons with ischemia are toxic to the neurons. Such a point was examined by fixing the gerbil to a brain position fixing device, perfusing a solution, in which oxidase glutamate is dissolved, to the hippocampus through a probe for micro-dialysis, and measuring the glutamate concentration outside the hippocampus neurons. Also, the inventors have clarified the relationship between the metabolism of glucose and the action mechanism of D-allose with ischemia by pre-administrating D-allose and 2-deoxiglucose.

[4] = rat blood-sugar value after intravenous saccharide under anesthesia; type: in vivo; details: for blood sugar value: 200 mg/kg BW intravenous, normal rats under anesthesia, fasted
Protocol: (2) Method: 1) Administration of rare saccharide: An SD male rat (with weight of about 300 g) was employed in an experiment after fasting for 20 to 24 hours. Nembutal (58 mg/kg B.W) was applied to the rat through abdominal administration, and after cutting the neck under anesthesia, a silicon tube was fixedly kept inserted in the jugular vein. A 1-ml syringe was connected to the silicon tube for administration of the rare saccharide. 2) Blood-collecting: Blood was collected by using the 1-ml syringe through the silicon tube inserted in the jugular vein. The blood-collecting was made immediately before the administration of the rare saccharide and then after 5, 10, 15, 20, 25, 30, 60, 120, 180 and 240 minutes from the same. 3) Blood sugar measurement: The blood sugar value in the collected blood was measured by using Antosense II (made by Bayer Medical).

[5] = target: human albumin (Homo sapiens, UniProt P02768); assay: saccharification (glycation) of albumin, glycoalbumin reagent; type: biochemical; details: albumin 3 g/dl
Sequence of human albumin (P02768 25-609): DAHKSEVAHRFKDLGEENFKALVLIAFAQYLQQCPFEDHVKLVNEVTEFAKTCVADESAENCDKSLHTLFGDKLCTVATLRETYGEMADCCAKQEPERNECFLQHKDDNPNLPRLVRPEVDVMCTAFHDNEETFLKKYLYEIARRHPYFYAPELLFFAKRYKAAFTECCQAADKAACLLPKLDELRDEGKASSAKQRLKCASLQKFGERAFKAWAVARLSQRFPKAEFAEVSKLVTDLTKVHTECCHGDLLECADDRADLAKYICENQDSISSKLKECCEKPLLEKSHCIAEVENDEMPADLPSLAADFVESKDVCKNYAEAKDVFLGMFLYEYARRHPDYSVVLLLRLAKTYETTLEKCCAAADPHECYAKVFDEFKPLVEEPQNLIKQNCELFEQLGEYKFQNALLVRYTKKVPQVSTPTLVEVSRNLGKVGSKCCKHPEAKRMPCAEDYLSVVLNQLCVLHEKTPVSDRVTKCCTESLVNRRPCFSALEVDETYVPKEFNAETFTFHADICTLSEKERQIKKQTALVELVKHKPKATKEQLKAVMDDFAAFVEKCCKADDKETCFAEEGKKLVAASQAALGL
Protocol: (2) Method: After fragmenting albumin into amino acids by using protease K, i.e., glycoalbumin (GA) measurement reagent (made by Oriental Yeast Co., Ltd.), glycolysine was measured by using ketoamine oxydase (see FIG. 38). Glycation of human albumin with various rare saccharides was examined. A sample was prepared through the steps of dissolving 3 g/dl of pure human albumin in PBS and then dissolving each of the rare saccharides so as to prepare a solution in final concentration of 55.5 mM. The prepared solution was filtrated with a filter of 0.25 μm mesh and sterilized, followed by incubation at 37° C. for 7 days. During the incubation, the GA concentration (glycolysine concentration) was measured at intervals of exactly 24 hours. Further, similar experiments were conducted by adding each of the rare saccharides in an albumin solution (final concentration 3 g/dl) and a glucose solution (final concentration 55.5 mM) so that each of the rare saccharides had final concentration of 55.5 mM.

[6] = intravenous grape sugar load test (IVGTT); type: in vivo, rat; details: 0.5 g/kg intravenous, rats fasted 16 hours
Protocol: (2) Method: 1) Intravenous grape sugar load test (IVGTT) . . . IVGTT was conducted on 8-week old male SD rats by inserting a catheter through the jugular vein. A rare saccharide was administrated to 3 rats, and glucose was administrated to other 3 rats.
Perform intravenous injection (IV) at 0.5 g/kg (i.e., 0.5 g/1000 g=500 mg/1000 g=0.5 mg/g).
Prepare rare-saccharide and glucose solutions in concentration of 0.5 g/mL (i.e., 0.5 g/1000 ul=500 mg/1000 ul=0.5 mg/ul). Prepare 2 mL of solution for each concentration.
Intravenously inject 200 ul of the solution for a 200 g rat.
Intravenously inject 250 ul of the solution for a 250 g rat.
Inject 300 ul of physiological saline after the intravenous injection.
Collect 150 ul of blood sample.
Abstain each rat from food for 16 hours as pretreatment. Allow to drink water.
Collect blood at 9 points in time, i.e., 0, 5, 10, 15, 20, 25, 30, 45 and 60 minutes.

[7] = saccharide 55.5 mM + D-glucose 55.5 mM
[8] = saccharide 55.5 mM, 37° C., 7 days

Row | SMILES | effective concentration for active-oxygen production inhibition ([1]; 0, 5 and 10 mM tested) | production of active oxygen, saccharide added after start of production ([1]; 10 mM added after start of phagocytosis and of active oxygen production) | active-oxygen production inhibitory effect ([1]; D-allose 5 mM) | inhibition at 10000 µM ([1]; Rattus norvegicus, Leukocyte, D-allose 10 mM, read-out: active-oxygen production inhibitory effect) [%] | production of active oxygen from leukocyte [1] | appearance rate of CINC-1 mRNA [2] | appearance rate of CINC-1 mRNA ([2]; listed as allose) | necrosis of hippocampus neurons caused by ischemia [3] | hippocampus neurons alive after ischemia ([3]; ischemia for 5 minutes, rat brains as printed, solution containing D-allose perfused before the ischemia, 80% died without) [%] | blood sugar value [4] | saccharification rate of albumin under coexistence with glucose [5, 7] | saccharification rate of albumin [5, 8] | time until blood sugar value approached a normal value ([4]; D-glucose 200 mg/kg BW intravenous) | blood sugar value in IVGTT [6] | insulin concentration in the blood during IVGTT [6] | appearance rate of CINC-1 mRNA ([2]; listed as psicose) | blood sugar value ([4]; listed as Psicose) | effect of inhibiting glycation under coexistence with glucose [5, 7] | glycation (saccharification) of albumin [5, 8]
1 | O=C[C@H](O)[C@H](O)[C@H](O)[C@H](O)CO [D-allose] | approximately 10 mM | the inhibitory effect was found | did not appear | ≥ 50 | inhibited; also recorded: has an effect of inhibiting production of active oxygen; also recorded: very strong effect of inhibiting the production of active oxygen | suppressed | reduced | significantly inhibited necrosis | 70 | no hypoglycemic was found | about 140 μmol/day | about 90 μmol/day | – | – | – | – | – | – | –
2 | O=C[C@H](O)[C@@H](O)[C@H](O)[C@H](O)CO [D-glucose, reference compound] | – | – | – | – | No inhibitory effect | – | – | – | – | temporarily increased | – | about 50 μmol/day | about 60 minutes | increased | a rise of the insulin concentration was found | – | – | – | –
3 | O=C(CO)[C@H](O)[C@H](O)[C@H](O)CO [D-psicose] | – | – | – | – | No inhibitory effect | suppressed | – | not found; also recorded: not confirmed | – | light hypoglycemic | – | – | – | no rise of the blood sugar value was found | influences upon the insulin secretion were not found | reduced | reduced during a period of 30 to 60 minutes | not found | not found; also recorded: does not promote saccharification of albumin
